Key:
Assay type in all cases: functional
KM12 [1] = assay: Growth inhibition of human KM12 cells assessed as cell growth at 10^-8 M incubated for 48 hrs by sulforhodamine B assay relative to control; details: KM12, 48 h, read-out: Activity
SF-295 = assay: Cytotoxicity against human SF295 cells after 48 hrs by SRB assay; details: SF-295, 48 h
NCI/ADR-RES [2] = assay: Growth inhibition of human NCI/ADR-RES cells assessed as cell growth at 10^-6 M incubated for 48 hrs by sulforhodamine B assay relative to control; details: read-out: Activity
UO-31 [3] = assay: Growth inhibition of human UO31 cells assessed as cell growth at 10^-8 M incubated for 48 hrs by sulforhodamine B assay relative to control; details: UO-31, 48 h, read-out: Activity
A498 = assay: Growth inhibition of human A498 cells assessed as cell growth at 10^-7 M incubated for 48 hrs by sulforhodamine B assay relative to control; details: A498, 48 h, read-out: Activity
KM12 [4] = assay: Growth inhibition of human KM12 cells assessed as cell growth at 10^-6 M incubated for 48 hrs by sulforhodamine B assay relative to control; details: KM12, 48 h, read-out: Activity
RPMI-8226 = assay: Growth inhibition of human RPMI8226 cells assessed as cell growth at 10^-7 M incubated for 48 hrs by sulforhodamine B assay relative to control; details: RPMI-8226, 48 h, read-out: Activity
NCI-H23 = assay: Growth inhibition of human NCI-H23 cells assessed as cell growth at 10^-6 M incubated for 48 hrs by sulforhodamine B assay relative to control; details: NCI-H23, 48 h, read-out: Activity
HCT-15 = assay: Cytotoxicity against human HCT15 cells after 48 hrs by SRB assay; details: HCT-15, 48 h
UO-31 [5] = assay: Growth inhibition of human UO31 cells assessed as cell growth at 10^-6 M incubated for 48 hrs by sulforhodamine B assay relative to control; details: UO-31, 48 h, read-out: Activity
CCRF-CEM = assay: Growth inhibition of human CCRF-CEM cells assessed as cell growth at 10^-7 M incubated for 48 hrs by sulforhodamine B assay relative to control; details: read-out: Activity
SW-620 [6] = assay: Growth inhibition of human SW620 cells assessed as cell growth at 10^-7 M incubated for 48 hrs by sulforhodamine B assay relative to control; details: SW-620, 48 h, read-out: Activity
SF-539 = assay: Growth inhibition of human SF539 cells assessed as cell growth at 10^-8 M incubated for 48 hrs by sulforhodamine B assay relative to control; details: SF-539, 48 h, read-out: Activity
NCI-H322M = assay: Cytotoxicity against human NCI-H322M cells after 48 hrs by SRB assay
MDA-MB-231 = assay: Growth inhibition of human MDA-MB-231 cells assessed as cell growth at 10^-5 M incubated for 48 hrs by sulforhodamine B assay relative to control; details: MDA-MB-231, 48 h, read-out: Activity
PC-3 [7] = assay: Growth inhibition of human PC3 cells assessed as cell growth at 10^-5 M incubated for 48 hrs by sulforhodamine B assay relative to control; details: PC-3, 48 h, read-out: Activity
SW-620 [8] = assay: Growth inhibition of human SW620 cells assessed as cell growth at 10^-8 M incubated for 48 hrs by sulforhodamine B assay relative to control; details: SW-620, 48 h, read-out: Activity
EKVX = assay: Cytotoxicity against human EKVX cells after 48 hrs by SRB assay
NCI/ADR-RES [9] = assay: Growth inhibition of human NCI/ADR-RES cells assessed as cell growth at 10^-4 M incubated for 48 hrs by sulforhodamine B assay relative to control; details: read-out: Activity
UACC-62 = assay: Cytotoxicity against human UACC62 cells after 48 hrs by SRB assay; details: UACC-62, 48 h
SNB-75 = assay: Growth inhibition of human SNB75 cells assessed as cell growth at 10^-8 M incubated for 48 hrs by sulforhodamine B assay relative to control; details: SNB-75, 48 h, read-out: Activity
DU-145 = assay: Cytotoxicity against human DU145 cells after 48 hrs by SRB assay; details: DU-145, 48 h
NCI-H522 [10] = assay: Growth inhibition of human NCI-H522 cells assessed as cell growth at 10^-8 M incubated for 48 hrs by sulforhodamine B assay relative to control; details: NCI-H522, 48 h, read-out: Activity
A549 [11] = assay: Growth inhibition of human A549/ATCC cells assessed as cell growth at 10^-7 M incubated for 48 hrs by sulforhodamine B assay relative to control; details: A549, 48 h, read-out: Activity
NCI-H226 = assay: Growth inhibition of human NCI-H226 cells assessed as cell growth at 10^-4 M incubated for 48 hrs by sulforhodamine B assay relative to control; details: NCI-H226, 48 h, read-out: Activity
PC-3 [12] = assay: Growth inhibition of human PC3 cells assessed as cell growth at 10^-7 M incubated for 48 hrs by sulforhodamine B assay relative to control; details: PC-3, 48 h, read-out: Activity
SK-MEL-2 = assay: Growth inhibition of human SK-MEL-2 cells assessed as cell growth at 10^-6 M incubated for 48 hrs by sulforhodamine B assay relative to control; details: SK-MEL-2, 48 h, read-out: Activity
NCI-H460 = assay: Cytotoxicity against human NCI-H460 cells after 48 hrs by SRB assay; details: NCI-H460, 48 h; for CC50: read-out: LC50 (the source's name)
NCI-H522 [13] = assay: Growth inhibition of human NCI-H522 cells assessed as cell growth at 10^-7 M incubated for 48 hrs by sulforhodamine B assay relative to control; details: NCI-H522, 48 h, read-out: Activity
RXF 393 = assay: Growth inhibition of human RXF393 cells assessed as cell growth at 10^-6 M incubated for 48 hrs by sulforhodamine B assay relative to control; details: RXF 393, 48 h, read-out: Activity
A549 [14] = assay: Growth inhibition of human A549/ATCC cells assessed as cell growth at 10^-4 M incubated for 48 hrs by sulforhodamine B assay relative to control; details: A549, 48 h, read-out: Activity
U-251 = assay: Growth inhibition of human U251 cells assessed as cell growth at 10^-4 M incubated for 48 hrs by sulforhodamine B assay relative to control; details: U-251, 48 h, read-out: Activity
MOLT-4 = assay: Growth inhibition of human MOLT4 cells assessed as cell growth at 10^-6 M incubated for 48 hrs by sulforhodamine B assay relative to control; details: MOLT-4, 48 h, read-out: Activity
[15] = read-out: LC50 (the source's name)
[16] = read-out: pLC50 (the source's name) (converted)

## C#C[C@@]1(O)[C@@H](CO)O[C@@H](n2cc(I)c3c(N)ncnc32)[C@@H]1O
KM12 [1]
  growth at 0.01 µM: 94 to 97%
SF-295; read-out: GI50
  GI50: 0.251 to 0.432 µM
SF-295; [15]
  CC50: > 100 µM
SF-295; read-out: TGI
  TGI: 3.77 µM
SF-295; read-out: pTGI (converted)
  TGI: 3.8 µM
NCI/ADR-RES [2]
  growth at 1 µM: 4 to 7%
UO-31 [3]
  growth at 0.01 µM: 84 to 85%
A498
  growth at 0.1 µM: 74 to 89%
KM12 [4]
  growth at 1 µM: 25 to 27%
RPMI-8226
  growth at 0.1 µM: 71 to 90%
NCI-H23
  growth at 1 µM: 28 to 33%
HCT-15; read-out: GI50
  GI50: 0.107 to 0.175 µM
HCT-15; [15]
  CC50: > 100 µM
HCT-15; read-out: TGI
  TGI: > 100 µM
HCT-15; read-out: pTGI (converted)
  TGI: > 100 µM
UO-31 [5]
  growth at 1 µM: 20 to 28%
CCRF-CEM
  growth at 0.1 µM: 72 to 74%
SW-620 [6]
  growth at 0.1 µM: 39%
SF-539
  growth at 0.01 µM: 89 to 102%
NCI-H322M; read-out: GI50
  GI50: 0.405 to 0.683 µM
NCI-H322M; read-out: TGI
  TGI: 7.49 to 42.8 µM
NCI-H322M; [16]
  CC50: > 100 µM
MDA-MB-231
  growth at 10 µM: 10 to 12%
PC-3 [7]
  growth at 10 µM: 2%
SW-620 [8]
  growth at 0.01 µM: 85 to 86%
EKVX; read-out: GI50
  GI50: 0.395 to 0.421 µM
EKVX; read-out: TGI
  TGI: 4.04 to 7.14 µM
EKVX; [16]
  CC50: > 100 µM
NCI/ADR-RES [9]
  growth at 100 µM: -2%
UACC-62; read-out: GI50
  GI50: 0.573 to 0.659 µM
UACC-62; [15]
  CC50: 6.63 to 24.5 µM
UACC-62; read-out: TGI
  TGI: 2.38 to 3.23 µM
SNB-75
  growth at 0.01 µM: 74 to 83%
DU-145; read-out: GI50
  GI50: 0.0983 to 0.164 µM
DU-145; read-out: TGI
  TGI: > 100 µM
DU-145; [16]
  CC50: > 100 µM
DU-145; read-out: pTGI (converted)
  TGI: > 100 µM
NCI-H522 [10]
  growth at 0.01 µM: 83 to 85%
A549 [11]
  growth at 0.1 µM: 69 to 80%
NCI-H226
  growth at 100 µM: 4 to 16%
PC-3 [12]
  growth at 0.1 µM: 43 to 48%
SK-MEL-2
  growth at 1 µM: 11 to 24%
NCI-H460; read-out: GI50
  GI50: 0.0584 to 0.137 µM
NCI-H460
  CC50: 75.4 to 100 µM
NCI-H460; read-out: TGI
  TGI: 1.67 to 2.18 µM
NCI-H522 [13]
  growth at 0.1 µM: 42 to 64%
RXF 393
  growth at 1 µM: 26 to 34%
A549 [14]
  growth at 100 µM: 4 to 8%

## C#C[C@@]1(O)[C@@H](CO)O[C@@H](n2cc(F)c3c(N)ncnc32)[C@@H]1O
KM12 [1]
  growth at 0.01 µM: 104%
SF-295; read-out: TGI
  TGI: 2.33 µM
SF-295; read-out: pGI50 (converted)
  GI50: 0.646 µM
SF-295; [16]
  CC50: 6.76 µM
SF-295; read-out: pTGI (converted)
  TGI: 2.34 µM
U-251
  growth at 100 µM: -18%
NCI/ADR-RES [2]
  growth at 1 µM: 22%
UO-31 [3]
  growth at 0.01 µM: 94%
A498
  growth at 0.1 µM: 95%
KM12 [4]
  growth at 1 µM: 35%
RPMI-8226
  growth at 0.1 µM: 76%
NCI-H23
  growth at 1 µM: 22%
HCT-15; read-out: TGI
  TGI: 3.19 µM
HCT-15; read-out: pGI50 (converted)
  GI50: 0.295 µM
HCT-15; [16]
  CC50: > 100 µM
HCT-15; read-out: pTGI (converted)
  TGI: 3.16 µM
UO-31 [5]
  growth at 1 µM: 23%
CCRF-CEM
  growth at 0.1 µM: 81%
SW-620 [6]
  growth at 0.1 µM: 61%
SF-539
  growth at 0.01 µM: 104%
MOLT-4
  growth at 1 µM: 11%
NCI-H322M; [15]
  CC50: > 100 µM
NCI-H322M; read-out: TGI
  TGI: 4.48 µM
NCI-H322M; read-out: pGI50 (converted)
  GI50: 0.501 µM
NCI-H322M; read-out: pTGI (converted)
  TGI: 4.47 µM
MDA-MB-231
  growth at 10 µM: -24%
PC-3 [7]
  growth at 10 µM: -10%
SW-620 [8]
  growth at 0.01 µM: 97%
EKVX; [15]
  CC50: > 100 µM
EKVX; read-out: TGI
  TGI: 11.3 µM
EKVX; read-out: pGI50 (converted)
  GI50: 0.676 µM
EKVX; read-out: pTGI (converted)
  TGI: 11.2 µM
NCI/ADR-RES [9]
  growth at 100 µM: -6%
UACC-62; read-out: TGI
  TGI: 1.47 µM
UACC-62; read-out: pGI50 (converted)
  GI50: 0.331 µM
UACC-62; [16]
  CC50: 7.24 µM
UACC-62; read-out: pTGI (converted)
  TGI: 1.48 µM
SNB-75
  growth at 0.01 µM: 92%
DU-145; [15]
  CC50: > 100 µM
DU-145; read-out: TGI
  TGI: 13.4 µM
DU-145; read-out: pGI50 (converted)
  GI50: 0.355 µM
DU-145; read-out: pTGI (converted)
  TGI: 13.5 µM
NCI-H522 [10]
  growth at 0.01 µM: 84%
A549 [11]
  growth at 0.1 µM: 92%
NCI-H226
  growth at 100 µM: -45%
PC-3 [12]
  growth at 0.1 µM: 84%
SK-MEL-2
  growth at 1 µM: 22%
NCI-H460
  CC50: > 100 µM
NCI-H460; read-out: TGI
  TGI: 10.2 µM
NCI-H460; read-out: pGI50 (converted)
  GI50: 0.229 µM
NCI-H460; read-out: pTGI (converted)
  TGI: 10.2 µM
NCI-H522 [13]
  growth at 0.1 µM: 68%
RXF 393
  growth at 1 µM: 42%
